Values quoted from earlier work in patent US6753016B2, “Preservation of wood products” (Rohm and Haas Company, priority 2001, dated 2004).

Settings: aqueous treatment of wood surfaces; compared to conventional chromium(VI) treatment

## [Cl][Fe]([Cl])[Cl] [ferric chloride]
  protective effect on treated wood in weathering: does not have a protective effect
